Tests used:
Assay in all cases: NCI60 one-dose screen
Format in all cases: cell-based
CCRF-CEM = settings: Homo sapiens, read-out: Growth percent
Outline: (§1)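 Tumour cell growth in RPMI 1640 plus 5% FBS was assessed after 48 h exposure to 10 µM compound, using SRB staining and A515. A value of 0 denotes no net growth and −20 denotes 20% lethality.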

MDA-MB-435 = settings: Homo sapiens; MDA-MB-435, 10 μM; read-out: Growth percent
Outline: as §1

OVCAR-3 = settings: Homo sapiens; OVCAR-3, 10 μM; read-out: Growth percent
Outline: as §1

IGROV1 = settings: Homo sapiens, IGROV-1; IGROV1, 10 μM; read-out: Growth percent
Outline: as §1

NCI-H522 = settings: Homo sapiens; NCI-H522, 10 μM; read-out: Growth percent
Outline: as §1

RPMI-8226 = settings: Homo sapiens; RPMI-8226, 10 μM; read-out: Growth percent
Outline: as §1

SK-MEL-5 = settings: Homo sapiens; SK-MEL-5, 10 μM; read-out: Growth percent
Outline: as §1

K-562 = settings: Homo sapiens, K562; K-562, 10 μM; read-out: Growth percent
Outline: as §1

HCT-15 = settings: Homo sapiens; HCT-15, 10 μM; read-out: Growth percent
Outline: as §1

MALME-3M = settings: Homo sapiens, read-out: Growth percent
Outline: as §1

SNB-19 = settings: Homo sapiens; SNB-19, 10 μM; read-out: Growth percent
Outline: as §1

NCI-H226 = settings: Homo sapiens; NCI-H226, 10 μM; read-out: Growth percent
Outline: as §1

HCT-116 = settings: Homo sapiens; HCT-116, 10 μM; read-out: Growth percent
Outline: as §1

OVCAR-8 = settings: Homo sapiens; OVCAR-8, 10 μM; read-out: Growth percent
Outline: as §1

SF-295 = settings: Homo sapiens; SF-295, 10 μM; read-out: Growth percent
Outline: as §1

EKVX = settings: Homo sapiens, read-out: Growth percent
Outline: as §1

NCI-H460 = settings: Homo sapiens; NCI-H460, 10 μM; read-out: Growth percent
Outline: as §1

MOLT-4 = settings: Homo sapiens; MOLT-4, 10 μM; read-out: Growth percent
Outline: as §1

COLO 205 = settings: Homo sapiens; COLO 205, 10 μM; read-out: Growth percent
Outline: as §1

MCF7 = settings: Homo sapiens; MCF7, 10 μM; read-out: Growth percent
Outline: as §1

O=c1cc(-c2ccccc2)oc2cc(O)cc(O)c12 [compound 2, 5,7-dihydroxyflavone, reference compound]
activity at 10 µM (CCRF-CEM): 102%
activity at 10 µM (MDA-MB-435): 99.5%
activity at 10 µM (OVCAR-3): 97.6%
activity at 10 µM (IGROV1): 95.2%
activity at 10 µM (NCI-H522): 89%
activity at 10 µM (RPMI-8226): 101%
activity at 10 µM (SK-MEL-5): 92.8%
activity at 10 µM (K-562): 96.8%
activity at 10 µM (HCT-15): 81%
activity at 10 µM (MALME-3M): 102%
activity at 10 µM (SNB-19): 86%
activity at 10 µM (NCI-H226): 86.8%
activity at 10 µM (HCT-116): 82.7%
activity at 10 µM (OVCAR-8): 95.2%
activity at 10 µM (SF-295): 99.9%
activity at 10 µM (EKVX): 89.3%
activity at 10 µM (NCI-H460): 98.3%
activity at 10 µM (MOLT-4): 106%
activity at 10 µM (COLO 205): 105%
activity at 10 µM (MCF7): 103%

— publication PMC12652692, “Synthesis and In Vitro Anticancer Evaluation of Novel Phosphonium Derivatives of Chrysin” (International Journal of Molecular Sciences, 2025)
